The source of these data is patent publication US5300629A, “Bactericidal and/or bacteriostatic peptides isolated from hemolymph of honeybees” (Plant Genetic Systems, N.V., priority 1987, dated 1994).

In brackets after ≈: the same amount, converted by molar mass. Where a SMILES comes first, the peptide text is derived from it. Bounds are passed on as bounds.

Data set [1] concerns E. coli NCTC 9001. It is filed as cell-based. Conditions: NCTC 9001, 72 h. The method, then:
Whole lymph or purified components, resuspended in PBS to a final volume equal to the starting material (heated lymph), was applied in 3 mm wells on agar plates seeded with the test organisms. Antibacterial activity was determined by measuring the growth-inhibition zones (in mm).
Test conditions: agar inhibition zone obtained with 10 namomole apidaecin, resuspended in 20 μl H2 O/well.

Data set [2] has as its system Agrobactierium tumefaciens DSM 3129. As to the kind of experiment: Minimal inhibitory concentration in liquid culture. The class given is cell-based. Conditions: 200 μl rich medium, 10^4 log-phase bacteria.
In the next data set the test system is Shigella flexneri CP 87. As to the kind of experiment: Minimal inhibitory concentration in liquid culture. Conditions: 200 μl rich medium, 10^4 log-phase bacteria. The class given is cell-based. The method, then:
(§1) In addition the exact concentration was determined precisely by amino-acid analysis and an equal sample of natural Bee 6b was prepared, allowing to compare the bactericidal activity of both natural and synthetic apidaecins by means of growth inhibition assays in liquid cultures (see mat & Meth.). The minimal inhibitory concentrations (μg/ml) were determined in liquid culture : 200 μl of a rich medium (trypticase soy broth or nutrient broth) was inoculated with 10^4 log-phase bacteria. Peptide concentrations ranged between 0 and 200 μg/ml. The values express μg/ml; when no inhibition was noticed the maximal values are given (+200 μg/ml or +50 μg/ml). All peptides were chemically synthesized, except for bee 6b which is purified from bee lymph.

Data set [3] deals with Erwinia salicis NCPPB 2530. As to the kind of experiment: Minimal inhibitory concentration in liquid culture. The class given is cell-based. Conditions: 200 μl rich medium, 10^4 log-phase bacteria.
The subject of data set [4] is Pseudomonas syringae pv. tomato NCPPB 1106. As to the kind of experiment: Minimal inhibitory concentration in liquid culture. Conditions: 200 μl rich medium, 10^4 log-phase bacteria. The class given is cell-based.
The test system of data set [5] is Rhizobium meliloti ZB 314. Briefly: Minimal inhibitory concentration in liquid culture. The class given is cell-based. Conditions: 200 μl rich medium, 10^4 log-phase bacteria.
Data set [6] relates to Citrobacter freundii ATCC 8090. As to the kind of experiment: Minimal inhibitory concentration in liquid culture. It is filed as cell-based. Conditions: 200 μl rich medium, 10^4 log-phase bacteria.
Data set [7] deals with Escherichia coli NCTC 9001. As to the kind of experiment: Minimal inhibitory concentration in liquid culture. Conditions: 200 μl rich medium, 10^4 log-phase bacteria. The class given is cell-based.
For a further data set, the system named is Salmonella Newport CD 94. Briefly: Minimal inhibitory concentration in liquid culture. The class given is cell-based. Conditions: 200 μl rich medium, 10^4 log-phase bacteria.
Data set [8] relates to Salmonella typhimurium ATCC 23565. Briefly: Minimal inhibitory concentration in liquid culture. The class given is cell-based. Conditions: 200 μl rich medium, 10^4 log-phase bacteria.
Data set [9] deals with Bacillus megaterium QB 1551. As to the kind of experiment: Minimal inhibitory concentration in liquid culture. It is filed as cell-based. Conditions: 200 μl rich medium, 10^4 log-phase bacteria, + = no inhibition at maximal value.
Data set [10] concerns E. coli NCTC 9001. Briefly: Bactericidal activity, method not stated. The class given is cell-based. Conditions: lyophilized apidaecins resuspended in PBS.
Data set [11] deals with Corynebacterium insidiosum NCPPB 1109. As to the kind of experiment: Minimal inhibitory concentration in liquid culture. The class given is cell-based. Conditions: 200 μl rich medium, 10^4 log-phase bacteria. The protocol: as §1
Data set [12] has as its system Corynebacterium michiganense pv. michiganense NCPPB 1573. Briefly: Minimal inhibitory concentration in liquid culture. The class given is cell-based. Conditions: 200 μl rich medium, 10^4 log-phase bacteria, + = no inhibition at maximal value. The protocol: as §1
For data set [13], the system named is Xanthomonas campestris pv. vesicatoria LMG 905. As to the kind of experiment: Minimal inhibitory concentration in liquid culture. It is filed as cell-based. Conditions: 200 μl rich medium, 10^4 log-phase bacteria, + = no inhibition at maximal value. The protocol:
as §1

In data set [14] the test system is Erwinia carotovora var atroseptica LMG 2385. As to the kind of experiment: Minimal inhibitory concentration in liquid culture. The class given is cell-based. Conditions: 200 μl rich medium, 10^4 log-phase bacteria.
The subject of data set [15] is Erwinia carotovora var carotovora NCPPB 312. Briefly: Minimal inhibitory concentration in liquid culture. It is filed as cell-based. Conditions: 200 μl rich medium, 10^4 log-phase bacteria.
In data set [16] the test system is Pseudomonas syringae pv. maculicola NCPPB 1776. As to the kind of experiment: Minimal inhibitory concentration in liquid culture. It is filed as cell-based. Conditions: 200 μl rich medium, 10^4 log-phase bacteria.
Data set [17] concerns Pseudomonas syringae pv. tabaci NCPPB 1237. As to the kind of experiment: Minimal inhibitory concentration in liquid culture. It is filed as cell-based. Conditions: 200 μl rich medium, 10^4 log-phase bacteria.
The subject of data set [18] is Pseudomonas solanacearum ATCC 11696. It is filed as cell-based. Conditions: 200 μl rich medium, 10^4 log-phase bacteria.
The test system of data set [19] is Xanthomonas campestris pv. campestris A 902. Briefly: Minimal inhibitory concentration in liquid culture. It is filed as cell-based. Conditions: 200 μl rich medium, 10^4 log-phase bacteria, + = no inhibition at maximal value.

On to `CC[C@H](C)[C@H](NC(=O)[C@H](Cc1ccc(O)cc1)NC(=O)[C@@H](NC(=O)[C@@H]1CCCN1)C(C)C)C(=O)N1CCC[C@H]1C(=O)N[C@@H](CCC(N)=O)C(=O)N1CCC[C@H]1C(=O)N[C@@H](CCCNC(=N)N)C(=O)N1CCC[C@H]1C(=O)N1CCC[C@H]1C(=O)N[C@@H](Cc1c[nH]cn1)C(=O)N1CCC[C@H]1C(=O)N[C@@H](CCCNC(=N)N)C(=O)N[C@@H](CC(C)C)C(=O)O` [Apid Ib4, P-V-Y-I-P-Q-P-R-P-P-H-P-R-L] (H-PVYIPQPRPPHPRL-OH), for which the agar inhibition zone in the data set on E. coli NCTC 9001 [1] was 14 mm.

`CC[C@H](C)[C@H](NC(=O)[C@@H](N)Cc1ccc(O)cc1)C(=O)N1CCC[C@H]1C(=O)N[C@@H](CCC(N)=O)C(=O)N1CCC[C@H]1C(=O)N[C@@H](CCCNC(=N)N)C(=O)N1CCC[C@H]1C(=O)N1CCC[C@H]1C(=O)N[C@@H](Cc1c[nH]cn1)C(=O)N1CCC[C@H]1C(=O)N[C@@H](CCCNC(=N)N)C(=O)N[C@@H](CC(C)C)C(=O)O` [Apid IB6, Y-I-P-Q-P-R-P-P-H-P-R-L] (H-YIPQPRPPHPRL-OH): the agar inhibition zone with E. coli NCTC 9001 [1] came out at 9 mm.

Consider `CC[C@H](C)[C@H](NC(=O)[C@H](Cc1ccc(O)cc1)NC(=O)[C@@H](NC(=O)[C@@H]1CCCN1C(=O)[C@H](CCCNC(=N)N)NC(=O)[C@H](CC(N)=O)NC(=O)[C@H](CC(N)=O)NC(=O)CN)C(C)C)C(=O)N[C@@H](CCC(N)=O)C(=O)N1CCC[C@H]1C(=O)N[C@@H](CCCNC(=N)N)C(=O)N1CCC[C@H]1C(=O)N1CCC[C@H]1C(=O)N[C@@H](Cc1c[nH]cn1)C(=O)N1CCC[C@H]1C(=O)N[C@@H](CCCNC(=N)N)C(=O)N[C@@H](CC(C)C)C(=O)O` [Apid PT-1] (H-GNNRPVYIQPRPPHPRL-OH), for which the minimal inhibitory concentration in [2] is 0.5 mg/L (≈ 0.249 µM); in the data set on Shigella flexneri CP 87, 0.5 mg/L (≈ 0.249 µM); in data set [3], 0.05 mg/L (≈ 0.0249 µM); in data set [4], 0.1 mg/L (≈ 0.0497 µM); in data set [5] it was 0.02 mg/L (≈ 0.00994 µM); in data set [6], 5 mg/L (≈ 2.49 µM). The minimal inhibitory concentration came out at 5 mg/L (≈ 2.49 µM) in data set [7], 5 mg/L (≈ 2.49 µM) in the data set on Salmonella Newport CD 94, 5 mg/L (≈ 2.49 µM) in [8] and 150 mg/L in [9]. In addition, in the data set with E. coli NCTC 9001 [10], the bactericidal activity result is “possessed a bactericidal activity”.

Turning to `CC[C@H](C)[C@H](NC(=O)[C@H](CCCNC(=N)N)NC(=O)[C@@H]1CCCN1C(=O)[C@H](Cc1c[nH]cn1)NC(=O)[C@@H]1CCCN1C(=O)[C@@H]1CCCN1C(=O)[C@H](CCCNC(=N)N)NC(=O)[C@@H]1CCCN1C(=O)[C@H](CCC(N)=O)NC(=O)[C@@H]1CCCN1C(=O)[C@@H](NC(=O)[C@H](Cc1ccc(O)cc1)NC(=O)[C@@H](NC(=O)[C@@H]1CCCN1C(=O)[C@H](CCCNC(=N)N)NC(=O)[C@H](CC(N)=O)NC(=O)[C@H](CC(N)=O)NC(=O)[C@H](CC(N)=O)NC(=O)CN)C(C)C)[C@@H](C)CC)C(=O)O` [Apid NT+1] (H-GNNNRPVYIPQPRPPHPRI-OH), the minimal inhibitory concentration in data set [2] was 0.2 mg/L (≈ 0.09 µM); in data set [11], 100 mg/L (≈ 45 µM); in data set [12], more than 50 mg/L; in the data set on Shigella flexneri CP 87 it was 0.1 mg/L (≈ 0.045 µM); in data set [13], more than 50 mg/L; in data set [14], 1 mg/L (≈ 0.45 µM). For the same compound, the minimal inhibitory concentration in [15] came out at 2.5 mg/L (≈ 1.12 µM); in data set [3], 0.02 mg/L (≈ 0.009 µM); in data set [4], 1 mg/L (≈ 0.45 µM); in [16], 2.5 mg/L (≈ 1.12 µM); in [17], 2.5 mg/L (≈ 1.12 µM); in data set [18], 25 mg/L (≈ 11.2 µM). Further, the minimal inhibitory concentration in data set [5] is 0.1 mg/L (≈ 0.045 µM); in data set [19], more than 50 mg/L; in data set [6] it was 0.2 mg/L (≈ 0.09 µM); in data set [7] it was 0.2 mg/L (≈ 0.09 µM); in the data set on Salmonella Newport CD 94, 1 mg/L (≈ 0.45 µM); in data set [8] it was 0.1 mg/L (≈ 0.045 µM). For the same compound, the minimal inhibitory concentration in [9] was 100 mg/L. Besides, the bactericidal activity result in the data set on E. coli NCTC 9001 [10] is given as “possessed a bactericidal activity”.

In the case of `CC[C@H](C)[C@H](NC(=O)[C@H](Cc1ccc(O)cc1)NC(=O)[C@@H](NC(=O)[C@@H]1CCCN1C(=O)[C@H](CCCNC(=N)N)NC(=O)[C@H](CC(N)=O)NC(=O)[C@H](CC(N)=O)NC(=O)CN)C(C)C)C(=O)N1CCC[C@H]1C(=O)N[C@@H](CCC(N)=O)C(=O)N1CCC[C@H]1C(=O)N[C@@H](CCCNC(=N)N)C(=O)N1CCC[C@H]1C(=O)N1CCC[C@H]1C(=O)N[C@@H](Cc1cnc[nH]1)C(=O)N1CCC[C@H]1C(=O)N[C@@H](CCCNC(=N)N)C(=O)N[C@@H](CC(C)C)C(=O)O` [bee 6b] (H-GNNRPVYIPQPRPPHPRL-OH), the “cell division and callus formation” value in the data set with Tobacco leaf protoplasts (after immobilization in low melting agarose) was “normal cell division and callus formation occured”. The “visible effects during incubation” value with Tobacco leaf protoplasts (tobacco leaf protoplasts 10^6 cells/ml, 2 days, 10 ng/ml up to 50 μg/ml) is on record as “no visible effects were observed”.

Take `CC[C@H](C)[C@H](NC(=O)[C@H](Cc1ccc(O)cc1)NC(=O)[C@@H](NC(=O)[C@@H]1CCCN1C(=O)[C@H](CCCNC(=N)N)NC(=O)[C@@H](N)CC(N)=O)C(C)C)C(=O)N1CCC[C@H]1C(=O)N[C@@H](CCC(N)=O)C(=O)N1CCC[C@H]1C(=O)N[C@@H](CCCNC(=N)N)C(=O)N1CCC[C@H]1C(=O)N1CCC[C@H]1C(=O)N[C@@H](Cc1c[nH]cn1)C(=O)N1CCC[C@H]1C(=O)N[C@@H](CCCNC(=N)N)C(=O)N[C@@H](CC(C)C)C(=O)O` [Apid Ib2, N-R-P-V-Y-I-P-Q-P-R-P-P-H-P-R-L] (H-NRPVYIPQPRPPHPRL-OH): the agar inhibition zone in the data set with E. coli NCTC 9001 [1] amounted to 16 mm.

As to `CC[C@H](C)[C@H](NC(=O)[C@H](Cc1ccc(O)cc1)NC(=O)[C@@H](NC(=O)[C@@H]1CCCN1C(=O)[C@H](CCCNC(=N)N)NC(=O)[C@H](CC(N)=O)NC(=O)[C@H](CC(N)=O)NC(=O)CN)C(C)C)C(=O)N1CCC[C@H]1C(=O)N[C@@H](CCC(N)=O)C(=O)N1CCC[C@H]1C(=O)N[C@@H](CCCNC(=N)N)C(=O)N1CCC[C@H]1C(=O)N1CCC[C@H]1C(=O)N[C@@H](Cc1c[nH]cn1)C(=O)N1CCC[C@H]1C(=O)N[C@@H](CCCNC(=N)N)C(=O)N[C@@H](CC(C)C)C(=O)O` [Apid Ib] (H-GNNRPVYIPQPRPPHPRL-OH), the agar inhibition zone in the data set with E. coli NCTC 9001 [1] turned out to be 18 mm. Besides, the bactericidal activity result with E. coli NCTC 9001 [10] is on record as “possessed a bactericidal activity”.
